The test system of one data set is MCF7. Description: Antiproliferative activity against human MCF7 cells assessed as decrease in cell viability measured after 72 hrs by MTT assay. It counts as functional, cell-based. The settings on record: MCF7, 72 h.
Another data set concerns PC-3. Description: Antiproliferative activity against human PC3 cells assessed as decrease in cell viability measured after 72 hrs by MTT assay. It counts as functional, cell-based. The settings on record: PC-3, 72 h. For orientation: Tetrazolium assays rely on reduction of a dye to a coloured formazan, in cell work by metabolically active cells.
For another data set, the system named is Jurkat. The data set can be described thus: Antiproliferative activity against human Jurkat T cells assessed as decrease in cell viability measured after 24 to 72 hrs by MTT assay. In kind it is functional, cell-based.
The test system of data set [1] is HeLa. The data set can be described thus: Antiproliferative activity against human HeLa cells assessed as decrease in cell viability measured after 72 hrs by MTT assay. It counts as functional, cell-based.
The subject of data set [2] is IEC-6. Description: Induction of apoptosis in rat IEC-6 cells assessed as increase in caspase 3 level at 0.1 to 0.6 uM after 24 hrs by FACS analysis. In kind it is cell-based. Conditions: iec-6, 24 h. (A flow cytometer gives signals particle by particle.)
Data set [3] has as its system HeLa. The data set can be described thus: Down regulation of ERK expression in human HeLa cells at 0.1 to 0.6 uM after 24 hrs by FACS analysis. It counts as functional, cell-based.
Data set [4] relates to IEC-6. Description: Cytotoxicity against rat IEC-6 cells assessed as reduction in cell viability at 0.1 to 0.6 uM measured after 24 to 72 hrs by MTT assay. In kind it is cell-based. The settings on record: iec-6, 0.6 µM.
The test system of data set [5] is IEC-6. The data set can be described thus: Cell cycle arrest in rat IEC-6 cells assessed as decrease in accumulation at G2-phase at 0.1 to 0.6 uM after 24 hrs by propidium iodide staining-based FACS analysis. It counts as ADME. The settings on record: iec-6, 24 h.
Data set [6] has as its system HeLa. The data set can be described thus: Induction of apoptosis in human HeLa cells assessed as increase in hypodiploid nuclei at 0.3 to 0.6 uM measured after 24 hrs by propidium iodide staining-based FACS analysis. In kind it is functional, cell-based.
Data set [7] relates to IEC-6. The data set can be described thus: Cell cycle arrest in rat IEC-6 cells assessed as increase in accumulation at S phase at 0.1 to 0.6 uM after 24 hrs by propidium iodide staining based FACS analysis. In kind it is ADME. Conditions: iec-6, 24 h.
Data set [8] is described as follows: Inhibition of ERK phosphorylation in rat IEC-6 cells at 0.6 uM after 24 hrs by FACS analysis. The settings on record: iec-6, 24 h. It counts as cell-based.
The test system of data set [9] is IEC-6. Description: Cell cycle arrest in rat IEC-6 cells assessed as accumulation at G0/G1-phase at 0.1 to 0.6 uM after 24 hrs by propidium iodide staining-based FACS analysis. The settings on record: iec-6, 24 h. It counts as ADME.
Data set [10] deals with IEC-6. Description: Induction of apoptosis in rat IEC-6 cells assessed as effect on PARP level at 0.1 to 0.6 uM after 24 hrs by FACS analysis. It counts as cell-based. Conditions: iec-6, 24 h.
Data set [11] relates to IEC-6. The data set can be described thus: Induction of apoptosis in rat IEC-6 cells assessed as increase in hypodiploid nuclei at 0.1 to 0.6 uM measured after 24 hrs by propidium iodide staining-based FACS analysis. It counts as cell-based. The settings on record: iec-6, 24 h.
The subject of data set [12] is IEC-6. The data set can be described thus: Induction of ROS generation in rat IEC-6 cells at 0.1 to 0.6 uM measured after 24 hrs by H2DCF-DA staining-based FACS analysis. Conditions: iec-6, 24 h. It counts as cell-based.
In data set [13] the test system is HeLa. The data set can be described thus: Induction of apoptosis in human HeLa cells assessed as effect on PARP level at 0.1 to 0.6 uM after 24 hrs by FACS analysis. It counts as functional, cell-based.
The test system of data set [14] is HeLa. The data set can be described thus: Inhibition of ERK phosphorylation in human HeLa cells at 0.6 uM after 24 hrs by FACS analysis. It counts as cell-based.
Data set [15] deals with HeLa. The data set can be described thus: Cell cycle arrest in human HeLa cells assessed as accumulation at G0/G1-phase at 0.1 to 0.6 uM after 24 hrs by propidium iodide staining-based FACS analysis. It counts as functional.
The subject of data set [16] is IEC-6. Description: Down regulation of ERK expression in rat IEC-6 cells at 0.6 uM after 24 hrs by FACS analysis. In kind it is ADME, cell-based. Conditions: iec-6, 24 h.
Data set [17] has as its system HeLa. Description: Cell cycle arrest in human HeLa cells assessed as decrease in accumulation at G2-phase at 0.1 to 0.6 uM after 24 hrs by propidium iodide staining-based FACS analysis. It counts as functional.
The test system of data set [18] is HeLa. The data set can be described thus: Induction of ROS generation in human HeLa cells at 0.1 to 0.6 uM measured after 24 hrs by H2DC-DA probe-based FACS analysis. It counts as functional, cell-based.
Data set [19] concerns HeLa. Description: Induction of apoptosis in human HeLa cells assessed as increase in caspase 3 level at 0.1 to 0.6 uM after 24 hrs by FACS analysis. In kind it is functional, cell-based.
The test system of data set [20] is IEC-6. The data set can be described thus: Cytotoxicity against rat IEC-6 cells assessed as reduction in cell viability measured after 24 to 72 hrs by MTT assay. In kind it is cell-based. The settings on record: for Activity: rat, iec-6.

The text below walks through data of ChEMBL document CHEMBL4340507, “Identification of an indol-based multi-target kinase inhibitor through phenotype screening and target fishing using inverse virtual screening approach” (Eur J Med Chem, 2019).

Usually IC50 stands for the concentration at which inhibition is half-maximal.

Structures are written as SMILES. Active and inactive are the calls of the source. No cut-off for these calls is given here.

Regarding `CN(CCc1ccc(-c2ccccc2)cc1)Cc1cn(C)c2ccc(CNc3ccc(F)cc3)cc12`, the half-maximal inhibitory concentration (IC50) worked out at 2.15 µM in the data set with MCF7, 72.7 µM with PC-3, 26.5 µM with Jurkat and 2.92 µM in the data set on HeLa [1].
With `N#Cc1c(Oc2ccc(F)c(NC(=O)Cc3cccc(C(F)(F)F)c3)c2)ccc2nc(NC(=O)C3CC3)sc12`, the Activity entry was “Toxic” in the data set with IEC-6 [2]; “Toxic” in the data set on IEC-6 [4]; “Toxic” in the data set with IEC-6 [5]; “Toxic” in the data set with IEC-6 [7]; “Toxic” in the data set on IEC-6 [9]; “Non-Toxic” in the data set with IEC-6 [10]. Further, the Activity result in the data set with IEC-6 [11], with IEC-6 [12] and in the data set on IEC-6 [16] was “Toxic” throughout. Also, the outcome in the data set on HeLa [3], in the data set with HeLa [6], in the data set with HeLa [15], in the data set with HeLa [17], with HeLa [18] and in the data set on HeLa [19] was Active. In addition, the “inhibition (INH)” value in data set [8] was “Active”. For the same compound, in the data set on HeLa [13], the result was inactive. The inhibition result with HeLa [14] was “Active”.
Regarding `CN(Cc1cccc2ccccc12)Cc1cn(C)c2ccc(CNc3ccc(F)cc3)cc12`, the IC50 with MCF7 worked out at 4.55 µM; in the data set with PC-3, 9.41 µM; in the data set with Jurkat, 3.68 µM; with IEC-6 [20] (Rattus norvegicus, IEC-6), 0.59 µM; in the data set with HeLa [1] it was 0.95 µM.
Take `Cn1cc(CNCCc2ccc(-c3ccccc3)cc2)c2cc(C(=O)Nc3ccc(F)cc3)ccc21`: the IC50 with MCF7 is 7.07 µM; in the data set on PC-3 it was 45.3 µM; in the data set with Jurkat, 83.8 µM; in the data set on HeLa [1] it was 24.3 µM.
The matching figures for `CN(CCc1ccc(Oc2ccccc2)cc1)Cc1cn(C)c2ccc(C(=O)Nc3ccc(F)cc3)cc12`: 20.7 µM, 30.8 µM, 51.8 µM and 16.6 µM.
The like results for `COc1cc(CN(C)Cc2cn(C)c3ccc(C(=O)Nc4ccc(F)cc4)cc23)cc(OC)c1OC` were, in that order, 13.2 µM, 6.45 µM, 42.1 µM and 4.21 µM.
The matching figures for `CC(=O)N(CCc1ccc(-c2ccccc2)cc1)Cc1cn(C)c2ccc(C(=O)Nc3ccc(F)cc3)cc12`: 82.6 µM, more than 100 µM, more than 100 µM and more than 100 µM.
Regarding `CN(CCc1ccccc1)Cc1cn(C)c2ccc(C(=O)Nc3ccc(F)cc3)cc12`, the 50% inhibitory concentration (IC50) is 14.7 µM with MCF7, 47.7 µM in the data set with PC-3, more than 100 µM in the data set with Jurkat and 19.6 µM in the data set on HeLa [1].
The like results for `CN(Cc1ccc(Oc2ccccc2)cc1)Cc1cn(C)c2ccc(CNc3ccc(F)cc3)cc12` were, in that order, 37 µM, 56 µM, 35.6 µM and 9.98 µM.
Consider `CN(Cc1ccc(-c2ccccc2)cc1)Cc1cn(C)c2ccc(C(=O)Nc3ccc(F)cc3)cc12`, for which the IC50 in the data set on MCF7 is 54.4 µM; with PC-3, more than 100 µM; with Jurkat, more than 100 µM; with HeLa [1], 23.6 µM.
For the compound `COc1cccc2c1C(=O)c1c(O)c3c(c(O)c1C2=O)C[C@@](O)(C(=O)CO)C[C@@H]3O[C@H]1C[C@H](N)[C@H](O)[C@H](C)O1` [DOXORUBICIN], the IC50 in the data set with MCF7 amounted to 14 µM; in the data set with PC-3, 1.07 µM; in the data set on Jurkat, 2.35 µM; in the data set on HeLa [1], 1.44 µM.
As for `CN(Cc1ccc(-c2ccccc2)cc1)Cc1cn(C)c2ccc(CNc3ccc(F)cc3)cc12`, the IC50 was 20.2 µM in the data set with MCF7, 84.3 µM with PC-3, 34.4 µM in the data set with Jurkat and 8.18 µM in the data set on HeLa [1].
In the case of `O=C(Nc1ccc(F)cc1)c1ccc2c(ccn2Cc2ccc(-c3ccccc3)cc2)c1`, the IC50 was 10.8 µM in the data set on MCF7, 8.36 µM with PC-3, more than 100 µM with Jurkat and 67.6 µM with HeLa [1].
For the compound `CC(=O)N(CCc1ccc(-c2ccccc2)cc1)Cc1cn(C)c2ccc(C(=O)Nc3ccc(C)cc3)cc12`, the IC50 in the data set on MCF7 was 12.8 µM; in the data set with PC-3, more than 100 µM; with Jurkat, more than 100 µM; with HeLa [1] it was more than 100 µM.
Regarding `CN(CCc1ccc(-c2ccccc2)cc1)Cc1cn(C)c2ccc(C(=O)N3CCCCC3)cc12`, the 50% inhibitory concentration (IC50) is 3.04 µM in the data set with MCF7, 52.2 µM with PC-3, 60.4 µM in the data set on Jurkat and 73.2 µM in the data set with HeLa [1]. The Activity result in the data set on IEC-6 [20] was “Non-Toxic”.
The matching figures for `CCCn1cc(CNCCc2ccc(-c3ccccc3)cc2)c2cc(CNc3ccc(F)cc3)ccc21`: 1.26 µM, 5.41 µM, 6.21 µM, 7.23 µM and “Toxic”.
Regarding `Cn1cc(CN2CCN(Cc3ccc(-c4ccccc4)cc3)CC2)c2cc(C(=O)Nc3ccc(F)cc3)ccc21`, the half-maximal inhibitory concentration (IC50) in the data set on MCF7 was 63.9 µM; with PC-3 it was 37.5 µM; in the data set on Jurkat, more than 100 µM; in the data set on HeLa [1], 39.7 µM.
On to `Cn1cc(CNCCc2ccc(-c3ccccc3)cc2)c2cc(CNc3ccc(F)cc3)ccc21`, for which the IC50 was 76.4 µM with MCF7, 2.08 µM with PC-3, 72 µM in the data set on Jurkat and 14.7 µM with HeLa [1].
Regarding `CN1CCN(Cc2cn(C)c3ccc(C(=O)Nc4ccc(F)cc4)cc23)CC1`, the IC50 in the data set on MCF7 is 24.7 µM; with PC-3, 89.2 µM; with Jurkat, more than 100 µM; in the data set on HeLa [1], 24.8 µM.
Regarding `Cc1ccc(NC(=O)c2ccc3c(c2)c(CN(C)CCc2ccc(-c4ccccc4)cc2)cn3C)cc1`, the IC50 was 3.04 µM with MCF7, 50.3 µM with PC-3, 68 µM with Jurkat and 69.8 µM in the data set with HeLa [1]. In addition, the Activity entry in the data set with IEC-6 [20] was “Non-Toxic”.
For `CCNC(=O)c1ccc2c(c1)c(CN(C)CCc1ccc(-c3ccccc3)cc1)cn2C`, the IC50 was 12.2 µM with MCF7, 87.5 µM in the data set on PC-3, 79.2 µM in the data set on Jurkat and more than 100 µM in the data set on HeLa [1].
